{
  "source": "the NIST ThermoML archive (doi:10.1016/j.tca.2012.01.024)",
  "experiment": "excess molar enthalpy (molar enthalpy of mixing); xn = mol fraction of the nth substance listed",
  "conditions": "1273.2 K, 101 kPa, Liquid, Calvet calorimetry",
  "note": "± gives the expanded uncertainty stated by the source.",
  "data": [
    {"compound": "[Sb]", "note": "[antimony] + [Sn]", "values": [
      {"measurement": "excess molar enthalpy", "setting": "x1 = 0.2665", "value": "-0.257 ± 0.00287", "unit": "kcal/mol"},
      {"measurement": "excess molar enthalpy", "setting": "x1 = 0.4886", "value": "-0.315 ± 0.00335", "unit": "kcal/mol"},
      {"measurement": "excess molar enthalpy", "setting": "x1 = 0.7372", "value": "-0.233 ± 0.00263", "unit": "kcal/mol"}
    ]},
    {"compound": "[Ni]", "note": "[nickel] + [Sb]", "values": [
      {"measurement": "excess molar enthalpy", "setting": "x1 = 0.2109", "value": "-2.58 ± 0.0263", "unit": "kcal/mol"}
    ]},
    {"compound": "[Ni]", "note": "[nickel] + [Sn]", "values": [
      {"measurement": "excess molar enthalpy", "setting": "x1 = 0.213", "value": "-2.29 ± 0.0232", "unit": "kcal/mol"}
    ]}
  ]
}
